Measured values as given in PubChem BioAssay AID256 (DTP/NCI, 2004).
Where “and” joins values, the source holds several entries; their conditions need not be identical. Identical values can stand only once. Toxic doses and inconclusive results are not listed. How the source made its calls: active means survival T/C of 150% or more; inactive means T/C below 125% in these data.

Tested on: CD2F1 mice, L1210 leukemia ip, survival T/C
Test: NCI In Vivo Anticancer Drug Screen. Data for tumor model L1210 Leukemia (intraperitoneal) in CD2F1 (CDF1) mice
Details: higher = longer survival
In short: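 Each value reflects a quotient of treated over vehicle control outcomes in mice with a transplanted tumor.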

[1] = endpoint: mean survival time, dose: 25.0 mg/kg/injection, schedule: Q01DX009 (ip), vehicle: saline with Tween-80
[2] = endpoint: mean survival time, dose: 50.0 mg/kg/injection, schedule: Q01DX009 (ip), vehicle: saline with Tween-80
[3] = endpoint: mean survival time, dose: 100.0 mg/kg/injection, schedule: Q01DX009 (ip), vehicle: saline with Tween-80
[4] = endpoint: mean survival time, dose: 200.0 mg/kg/injection, schedule: Q01DX009 (ip), vehicle: saline with Tween-80
[5] = endpoint: mean survival time, dose: 100.0 mg/kg/injection, schedule: Q04DX002 (ip), vehicle: saline
[6] = endpoint: mean survival time, dose: 200.0 mg/kg/injection, schedule: Q04DX002 (ip), vehicle: saline
[7] = endpoint: mean survival time, dose: 400.0 mg/kg/injection, schedule: Q04DX002 (ip), vehicle: saline
[8] = endpoint: mean survival time, dose: 100.0 mg/kg/injection, schedule: Q04DX003 (ip), vehicle: saline with Tween-80
[9] = endpoint: mean survival time, dose: 200.0 mg/kg/injection, schedule: Q04DX003 (ip), vehicle: saline with Tween-80
[10] = endpoint: mean survival time, dose: 400.0 mg/kg/injection, schedule: Q04DX003 (ip), vehicle: saline with Tween-80

Measured: T/C

CCC(C)CC(N)O (stereo not given)
inactive: endpoint: mean survival time, dose: 75.0 mg/kg/injection, schedule: Q01DX001 (ip), vehicle: saline 103 % of control | endpoint: mean survival time, dose: 150.0 mg/kg/injection, schedule: Q01DX001 (ip), vehicle: saline 97 % of control

CN(C)/C=N\c1ncnc2c1cnn2C1OC(CO)C(O)C1O (stereo not given)
inactive: endpoint: mean survival time, dose: 3.13 mg/kg/injection, schedule: Q01DX005 (ip), vehicle: water 96 % of control | endpoint: mean survival time, dose: 6.25 mg/kg/injection, schedule: Q01DX005 (ip), vehicle: water 102 % of control | endpoint: mean survival time, dose: 12.5 mg/kg/injection, schedule: Q01DX005 (ip), vehicle: water 110 % of control | endpoint: mean survival time, dose: 25.0 mg/kg/injection, schedule: Q01DX005 (ip), vehicle: water 98 % of control and 107 % of control | endpoint: mean survival time, dose: 50.0 mg/kg/injection, schedule: Q01DX005 (ip), vehicle: water 113 % of control and 110 % of control

Nc1nc(-c2cccc3ccccc23)cc2ccccc12
inactive: endpoint: mean survival time, dose: 12.5 mg/kg/injection, schedule: Q01DX009 (ip), vehicle: saline with Tween-80 89 % of control and 98 % of control | [1] 101 % of control and 102 % of control | [2] 104 % of control and 105 % of control | [3] 112 % of control and 97 % of control | [4] 118 % of control and 106 % of control

CC(=O)OCC1OC(OC(C)=O)C(NC(=O)NS(=O)(=O)c2ccc(C)cc2)C(OC(C)=O)C1OC(C)=O (stereo not given)
inactive: endpoint: mean survival time, dose: 12.5 mg/kg/injection, schedule: Q01DX009 (ip), vehicle: other 105 % of control | endpoint: mean survival time, dose: 25.0 mg/kg/injection, schedule: Q01DX009 (ip), vehicle: other 98 % of control | endpoint: mean survival time, dose: 50.0 mg/kg/injection, schedule: Q01DX009 (ip), vehicle: other 93 % of control | endpoint: mean survival time, dose: 100.0 mg/kg/injection, schedule: Q01DX009 (ip), vehicle: other 94 % of control | endpoint: mean survival time, dose: 200.0 mg/kg/injection, schedule: Q01DX009 (ip), vehicle: other 94 % of control

CCOC(=O)C1C(C(=O)OCC)C(C)(C)C1N(C)C (stereo not given)
inactive: [2] 107 % of control | [3] 98 % of control | [4] 98 % of control

CCCCN(CCCC)P1(=O)OCCO1
inactive: [5] 103 % of control | [6] 107 % of control | [7] 98 % of control

Cc1n[nH]n(Cc2ccccc2)c1=O
inactive: endpoint: mean survival time, dose: 25.0 mg/kg/injection, schedule: Q01DX005 (ip), vehicle: saline with Tween-80 97 % of control | endpoint: mean survival time, dose: 50.0 mg/kg/injection, schedule: Q01DX005 (ip), vehicle: saline with Tween-80 99 % of control | endpoint: mean survival time, dose: 100.0 mg/kg/injection, schedule: Q01DX005 (ip), vehicle: saline with Tween-80 97 % of control | endpoint: mean survival time, dose: 200.0 mg/kg/injection, schedule: Q01DX005 (ip), vehicle: saline with Tween-80 99 % of control | endpoint: mean survival time, dose: 400.0 mg/kg/injection, schedule: Q01DX005 (ip), vehicle: saline with Tween-80 97 % of control

c1ccc(C2SCCCS2)cc1
inactive: endpoint: mean survival time, dose: 100.0 mg/kg/injection, schedule: Q04DX003 (ip), vehicle: other 101 % of control | endpoint: mean survival time, dose: 200.0 mg/kg/injection, schedule: Q04DX003 (ip), vehicle: other 97 % of control | endpoint: mean survival time, dose: 400.0 mg/kg/injection, schedule: Q04DX003 (ip), vehicle: other 101 % of control

Cc1cc(=O)cc(C)n1C
inactive: [8] 98 % of control | [9] 97 % of control | [10] 94 % of control

c1csc(C[N+]23CN4CN(CN(C4)C2)C3)c1
inactive: endpoint: median survival time, dose: 12.5 mg/kg/injection, schedule: Q01DX009 (ip), vehicle: saline 103 % of control | endpoint: median survival time, dose: 25.0 mg/kg/injection, schedule: Q01DX009 (ip), vehicle: saline 107 % of control | endpoint: median survival time, dose: 50.0 mg/kg/injection, schedule: Q01DX009 (ip), vehicle: saline 107 % of control | endpoint: median survival time, dose: 100.0 mg/kg/injection, schedule: Q01DX009 (ip), vehicle: saline 108 % of control | endpoint: median survival time, dose: 200.0 mg/kg/injection, schedule: Q01DX009 (ip), vehicle: saline 101 % of control | endpoint: median survival time, dose: 400.0 mg/kg/injection, schedule: Q01DX009 (ip), vehicle: saline 109 % of control

COc1ccc(-c2nnc(-c3ccc(OC)c(Cl)c3)nn2)cc1Cl
inactive: [8] 93 % of control | [9] 86 % of control

O=[N+]([O-])C(Br)(CO)CO
inactive: endpoint: mean survival time, dose: 4.7 mg/kg/injection, schedule: Q01DX009 (ip), vehicle: saline 101 % of control | endpoint: mean survival time, dose: 4.7 mg/kg/injection, schedule: Q04DX003 (ip), vehicle: saline 98 % of control | endpoint: mean survival time, dose: 9.4 mg/kg/injection, schedule: Q01DX009 (ip), vehicle: saline 101 % of control | endpoint: mean survival time, dose: 9.4 mg/kg/injection, schedule: Q04DX003 (ip), vehicle: saline 96 % of control | endpoint: mean survival time, dose: 18.8 mg/kg/injection, schedule: Q01DX001 (ip), vehicle: saline 102 % of control | endpoint: mean survival time, dose: 18.8 mg/kg/injection, schedule: Q01DX009 (ip), vehicle: saline 95 % of control | endpoint: mean survival time, dose: 18.8 mg/kg/injection, schedule: Q04DX003 (ip), vehicle: saline 105 % of control

C[N+](C)(C)CCOC(=O)c1cc(CBr)cc(CBr)c1
inactive: endpoint: mean survival time, dose: 100.0 mg/kg/injection, schedule: Q04DX003 (ip), vehicle: saline 103 % of control

CCOC(=S)SCCCC(C)CC (stereo not given)
inactive: endpoint: mean survival time, dose: 100.0 mg/kg/injection, schedule: Q01DX001 (ip), vehicle: saline 100 % of control | endpoint: mean survival time, dose: 200.0 mg/kg/injection, schedule: Q01DX001 (ip), vehicle: saline 102 % of control | endpoint: mean survival time, dose: 400.0 mg/kg/injection, schedule: Q01DX001 (ip), vehicle: saline 102 % of control

CCCCCC1SC1CC1SC1CCCCCCCC(=O)N(CCCC)CCCC (stereo not given)
inactive: endpoint: mean survival time, dose: 75.0 mg/kg/injection, schedule: Q04DX003 (ip), vehicle: saline 98 % of control | endpoint: mean survival time, dose: 150.0 mg/kg/injection, schedule: Q04DX003 (ip), vehicle: saline 107 % of control | endpoint: mean survival time, dose: 300.0 mg/kg/injection, schedule: Q04DX003 (ip), vehicle: saline 97 % of control

O=C(Cn1cc[n+](CC(=O)c2ccccc2)c1)c1ccccc1
inactive: [8] 109 % of control

NC(=O)c1c[nH]n(C2OC(CO)C(O)C2O)c1=O (stereo not given)
inactive: endpoint: median survival time, dose: 49.9 mg/kg/injection, schedule: Q01DX005 (ip), vehicle: saline 100 % of control | endpoint: median survival time, dose: 99.8 mg/kg/injection, schedule: Q01DX005 (ip), vehicle: saline 94 % of control | endpoint: median survival time, dose: 199.6 mg/kg/injection, schedule: Q01DX005 (ip), vehicle: saline 94 % of control

Nc1cc(=O)[nH]c(O)c1C(=O)O
inactive: [2] 104 % of control | [3] 96 % of control

COc1cccc(C2NC(=O)c3c(n[nH]c3N)S2)c1O (stereo not given)
inactive: endpoint: median survival time, dose: 12.5 mg/kg/injection, schedule: Q01DX009 (ip), vehicle: saline with Tween-80 101 % of control | endpoint: median survival time, dose: 25.0 mg/kg/injection, schedule: Q01DX009 (ip), vehicle: saline with Tween-80 101 % of control | endpoint: median survival time, dose: 50.0 mg/kg/injection, schedule: Q01DX009 (ip), vehicle: saline with Tween-80 102 % of control | endpoint: median survival time, dose: 100.0 mg/kg/injection, schedule: Q01DX009 (ip), vehicle: saline with Tween-80 98 % of control | endpoint: median survival time, dose: 200.0 mg/kg/injection, schedule: Q01DX009 (ip), vehicle: saline with Tween-80 97 % of control | endpoint: median survival time, dose: 400.0 mg/kg/injection, schedule: Q01DX009 (ip), vehicle: saline with Tween-80 93 % of control

O=c1[nH]nc(-c2cccc3ccccc23)c2ccccc12
inactive: [8] 97 % of control | [9] 94 % of control | [10] 97 % of control

COC(=O)c1nccnc1N
inactive: [5] 96 % of control | [6] 105 % of control | [7] 113 % of control

CCOC(=O)C1(C(=O)OCC)CCC(O)N1C(=O)c1ccccc1[N+](=O)[O-] (stereo not given)
inactive: endpoint: mean survival time, dose: 100.0 mg/kg/injection, schedule: Q01DX001 (ip), vehicle: Klucel (hydroxypropylcellulose) (HPC) 100 % of control | endpoint: mean survival time, dose: 200.0 mg/kg/injection, schedule: Q01DX001 (ip), vehicle: Klucel (hydroxypropylcellulose) (HPC) 96 % of control | endpoint: mean survival time, dose: 400.0 mg/kg/injection, schedule: Q01DX001 (ip), vehicle: Klucel (hydroxypropylcellulose) (HPC) 92 % of control

CNC(=O)Nc1ccc(S(N)(=O)=O)cc1
inactive: [3] 97 % of control | [4] 91 % of control | endpoint: mean survival time, dose: 400.0 mg/kg/injection, schedule: Q01DX009 (ip), vehicle: saline with Tween-80 100 % of control

COC(=N)C/C=C/CC(=N)OC
inactive: [8] 98 % of control | [9] 95 % of control | [10] 98 % of control

O=C1OC2C(I)C3CC1C2C3 (stereo not given)
inactive: [8] 96 % of control | [9] 96 % of control

CCCCCCCCCCCCCCCC(=O)N(CCCN)CCCN(CCCN)C(=O)CCCCCCCCCCCCCCC
inactive: [1] 97 % of control | [2] 89 % of control

Cc1ccc(NC(=O)Nc2ccccc2C(N)=O)c([N+](=O)[O-])c1
inactive: endpoint: mean survival time, dose: 100.0 mg/kg/injection, schedule: Q01DX009 (ip), vehicle: Klucel (hydroxypropylcellulose) (HPC) 95 % of control | endpoint: mean survival time, dose: 200.0 mg/kg/injection, schedule: Q01DX009 (ip), vehicle: Klucel (hydroxypropylcellulose) (HPC) 89 % of control | endpoint: mean survival time, dose: 400.0 mg/kg/injection, schedule: Q01DX009 (ip), vehicle: Klucel (hydroxypropylcellulose) (HPC) 95 % of control
